Values quoted from earlier work, collected in paper PMC6492937.

Test: not told

Structure (SMILES) | log partition octanol / water [log10]
CCCCCCN1CCCC1=O | 2.1
CCCCN1CCCCCC1=O | 1.80
CCCCN1CCCC1=O | 1.02
CCCCCCCCCCCCN1CCCCCC1=O | 6.28
CCCCN1CCCCC1=O | 1.39
CCCCCCCCCC(=O)N1CC(O)CC1C(=O)NCC (stereo not drawn) | 2.86
CCCCCCC(=O)N(C)C | 1.89
CCCCCCN1CCCCCC1=O | 2.91
CCCCCC(=O)N(C)C | 1.36
CCCCCCN1CCCCC1=O | 2.3
CCCCCCCCC(=O)N(C)C | 3.00
CCCCCCCCN1CCCC1=O | 3.05
CCCCCCCCN1CCCCC1=O | 3.41
CCCCCCCC(=O)N(C)C | 2.59
CCCCCCCCN1CCCCCC1=O | 4.04
